Structures can show the parent of a compound that is named as a salt.

The target of this assay is T1, Human Polθ polymerase domain (aa1820-2590) (Homo sapiens, UniProt O75417).
T1 construct: Human Polθ polymerase domain (aa1820-2590) was expressed in E. Coli; made in house; host or cells: E. coli
T1 sequence (O75417 1820-2590): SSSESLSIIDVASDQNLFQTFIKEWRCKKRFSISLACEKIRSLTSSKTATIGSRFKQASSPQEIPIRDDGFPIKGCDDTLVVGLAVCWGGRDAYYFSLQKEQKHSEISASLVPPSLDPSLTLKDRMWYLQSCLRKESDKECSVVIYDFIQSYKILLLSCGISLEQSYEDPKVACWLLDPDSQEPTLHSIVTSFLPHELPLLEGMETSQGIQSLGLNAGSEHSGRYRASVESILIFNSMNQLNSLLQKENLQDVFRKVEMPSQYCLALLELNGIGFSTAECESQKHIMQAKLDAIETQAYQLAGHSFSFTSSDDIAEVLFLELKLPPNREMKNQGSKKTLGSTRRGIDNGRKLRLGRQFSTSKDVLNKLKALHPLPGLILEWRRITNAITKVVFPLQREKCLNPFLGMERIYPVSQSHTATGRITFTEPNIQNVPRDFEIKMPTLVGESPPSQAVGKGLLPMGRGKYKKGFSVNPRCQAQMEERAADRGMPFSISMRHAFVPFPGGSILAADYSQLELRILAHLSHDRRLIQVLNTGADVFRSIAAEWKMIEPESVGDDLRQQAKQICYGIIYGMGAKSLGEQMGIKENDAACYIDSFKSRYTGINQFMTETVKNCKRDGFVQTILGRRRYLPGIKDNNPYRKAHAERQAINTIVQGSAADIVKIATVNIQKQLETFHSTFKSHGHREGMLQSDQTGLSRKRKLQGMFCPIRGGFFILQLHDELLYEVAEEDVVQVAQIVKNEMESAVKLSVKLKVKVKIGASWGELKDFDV
As to the kind of experiment: Polθ Polymerase Domain WT KI Assay (PicoGreen). The following applies: 100 nM DNA substrate, 0.156 nM Polθ, initial rates vs inhibitor concentration. The format is biochemical. How it is done: A PicoGreen assay was used to measure the KI values of reversible compounds that inhibit the activity of Polθ in vitro.
Human Polθ polymerase domain (aa1820-2590) was expressed in E. Coli, purified, aliquoted and stored at −80° C. until required. Polθ substrate was generated from a 1.2:1 mix of DNA II Short to DNA II Long to give a final concentration of […] substrate in annealing buffer (20 mM Tris pH 7.5, 50 mM NaCl). The substrate was heated in 50 mL aliquots to 95° C. in a heating block for 5 min before the heating block switched off, the reaction left to cool to rt and stored at −20° C. until required.
Assay measurements were performed with 1× buffer comprising 25 mM Tris pH 7.5, 12.5 mM NaCl, […], 5% (v/v) glycerol, 0.01% v/v Triton x-100, 0.1 mg/ml BSA, 1 mM DTT. […] 100 nL of 23×1:1.5-fold serial dilutions and a DMSO only control were dispensed using the Tecan dispenser into Greiner 384 well black low volume plates (product code 784076). DMSO concentration was maintained at 1% of the final assay volume by back filling with DMSO.
To stop the reaction, 5 μL of a solution containing 25 mM Tris-HCl PH 7.5 and 20 mM EDTA was added at […] (t=0, 15, 30, 60, 90, 120, 150, 180 mins) using the Tempest's time delay function. The plates were covered during the time course to prevent evaporation. After completing the assay, 5 μL of detection reagent (25 mM Tris-HCl pH 7.5 and 2.5% (v/v) PicoGreen) was dispensed into the wells using a Tempest liquid handler (Formulatrix) and plates subsequently read on the CLARIOstar Plus (BMG Labtech) using the default optical settings for fluorescein and the auto gain/focus settings.
All data analysis was carried out using GraphPad Prism V.8 (GraphPad Software Inc, San Diego, CA). Time course data for each inhibitor concentration were fitted to the linear regression model in GraphPad Prism. Any time points where the control (DMSO only) reaction was no longer linear were excluded from the analysis. The initial rates (slopes) obtained from the linear regression were then plotted against inhibitor concentration and fitted to an inhibitor vs. response variable slope (four parameter) model on GraphPad Prism to determine the KI values.
As for `Cc1cc(C(F)(F)F)cc(N2C(=O)C[C@@H]3CN(Cc4ccc([C@@H]5CCCN5C)cc4)c4c(F)cccc4N(C)C(=O)[C@H]32)n1` (racemic) [Example 125b, (3aR,11aS)-6-Fluoro-10-methyl-1-(6-methyl-4-(trifluoromethyl)pyridin-2-yl)-5-(4-((S/R)-1-methylpyrrolidin-2-yl)benzyl)-1,3a,4,5,10,11a-hexahydro-2H-benzo[b]pyrrolo[2,3-f][1,4]diazocine-2,11(3H)-dione], the affinity, expressed as Ki, was 2.48 nM.
Under `Cc1cc(C(F)(F)F)cc(N2C(=O)C[C@@H]3CN(C[C@@H](O)CN(C)C)c4c(Cl)cccc4N(C)C(=O)[C@H]32)n1` (racemic) [Example 132a, (3aR,11aS)-6-chloro-5-((S/R)-3-(dimethylamino)-2-hydroxypropyl)-10-methyl-1-(6-methyl-4-(trifluoromethyl)pyridin-2-yl)-1,3a,4,5,10,11a-hexahydro-2H-benzo[b]pyrrolo[2,3-f][1,4]diazocine-2,11(3H)-dione] stands 6.27 nM; under `Cc1cc(C(F)(F)F)cc(N2C(=O)C[C@@H]3CN(C[C@@H](O)CN4CCOCC4)c4c(Cl)cccc4N(C)C(=O)[C@H]32)n1` (racemic) [Example 133a, (3aR,11aS)-6-chloro-5-((S/R)-2-hydroxy-3-morpholinopropyl)-10-methyl-1-(6-methyl-4-(trifluoromethyl)pyridin-2-yl)-1,3a,4,5,10,11a-hexahydro-2H-benzo[b]pyrrolo[2,3-f][1,4]diazocine-2,11(3H)-dione], 1.47 nM; under `Cc1cc(C(F)(F)F)cc(N2C(=O)C[C@@H]3CN(CCN4C[C@@H](C)N[C@@H](C)C4)c4c(C)cccc4N(C)C(=O)[C@H]32)n1` (relative stereo) [Example 45, (3aR,11aS)-5-(2-(rel-(3R,5S)-3,5-Dimethylpiperazin-1-yl)ethyl)-6,10-dimethyl-1-(6-methyl-4-(trifluoromethyl)pyridin-2-yl)-1,3a,4,5,10,11a-hexahydro-2H-benzo[b]pyrrolo[2,3-f][1,4]diazocine-2,11(3H)-dione dihydrochloride], 0.651 nM.
The result for `Cc1cc(C(F)(F)F)cc(N2C(=O)C[C@@H]3CN(C[C@H]4CNC[C@@H]4O)c4c(F)cccc4N(C)C(=O)[C@H]32)n1` (relative stereo) [Example 91, (3aR,11aS)-6-Fluoro-5-(((rel-trans)-4-hydroxypyrrolidin-3-yl)methyl)-10-methyl-1-(6-methyl-4-(trifluoromethyl)pyridin-2-yl)-1,3a,4,5,10,11a-hexahydro-2H-benzo[b]pyrrolo[2,3-f][1,4]diazocine-2,11(3H)-dione] reads 17.3 nM; that for `Cc1cc(C(F)(F)F)cc(N2C(=O)C[C@@H]3CN(C[C@H]4CCNC[C@H]4C#N)c4c(Cl)cccc4N(C)C(=O)[C@H]32)n1` (relative stereo) [Example 102, (rel-cis)-4-(((3aR,11aS)-6-Chloro-10-methyl-1-(6-methyl-4-(trifluoromethyl)pyridin-2-yl)-2,11-dioxo-1,2,3,3a,4,10,11,11a-octahydro-5H-benzo[b]pyrrolo[2,3-f][1,4]diazocin-5-yl)methyl)piperidine-3-carbonitrile hydrochloride], 1.77 nM.
As to `Cc1cc(C(F)(F)F)cc(N2C(=O)CC3CN(C4CC(OCc5ccccc5)C4)c4c(F)cccc4N(C)C(=O)C32)n1` (single isomer, unassigned) [Example 92a], the Ki was 9.06 nM.
Under `Cc1cc(C(F)(F)F)cc(N2C(=O)C[C@@H]3CN(C4CC(OCc5ccccc5)C4)c4c(F)cccc4N(C)C(=O)[C@H]32)n1` (single isomer, unassigned) [Example 92b] stands 14.7 nM; under `Cc1cc(C(F)(F)F)cc(N2C(=O)C[C@@H]3CN(Cc4cn5c(n4)C(C)N(C)CC5)c4c(Cl)cccc4N(C)C(=O)[C@H]32)n1` (single isomer, unassigned) [Example 96a], 1.45 nM; under `Cc1cc(C(F)(F)F)cc(N2C(=O)C[C@@H]3CN(CC4CCCCN4)c4c(Cl)cccc4N(C)C(=O)[C@H]32)n1` (single isomer, unassigned) [Example 105a], 8.57 nM.
Under `Cc1cc(C(F)(F)F)cc(N2C(=O)C[C@@H]3CN(CC4COCCN4)c4c(F)cccc4N(C)C(=O)[C@H]32)n1` (single isomer, unassigned) [Example 106a] stands 13.7 nM.
Under `Cc1cc(C(F)(F)F)cc(N2C(=O)C[C@@H]3CN(CC4CCCN4)c4c(Cl)cccc4N(C)C(=O)[C@H]32)n1` (single isomer, unassigned) [Example 107a] stands 3.91 nM; under `Cc1cc(C(F)(F)F)cc(N2C(=O)C[C@@H]3CN(CC4COCCN4)c4c(Cl)cccc4N(C)C(=O)[C@H]32)n1` (single isomer, unassigned) [Example 108b], 1.55 nM.
The compound `Cc1cc(C(F)(F)F)cc(N2C(=O)C[C@@H]3CN(CC4CNCCO4)c4c(Cl)cccc4N(C)C(=O)[C@H]32)n1` (single isomer, unassigned) [Example 109a] yielded an inhibitory constant (Ki) of 1.11 nM. This Ki and that of the compound before are within 1.5-fold of each other.
The result for `Cc1cc(C(F)(F)F)cc(N2C(=O)C[C@@H]3CN(CC4COCCN4)c4c(C)cccc4N(C)C(=O)[C@H]32)n1` (single isomer, unassigned) [Example 112a] reads 4.14 nM; that for `Cc1cc(C(F)(F)F)cc(N2C(=O)C[C@@H]3CN(Cc4cn5c(n4)C(C)N(C)CC5)c4c(C)cccc4N(C)C(=O)[C@H]32)n1` (single isomer, unassigned) [Example 116a], 0.63 nM.
Under `Cc1cc(C(F)(F)F)cc(N2C(=O)C[C@@H]3CN(CC4CCCCN4C)c4c(Cl)cccc4N(C)C(=O)[C@H]32)n1` (single isomer, unassigned) [Example 117a] stands 3.37 nM.
The result for `Cc1cc(C(F)(F)F)cc(N2C(=O)C[C@@H]3CN(CC4CCCN4C)c4c(Cl)cccc4N(C)C(=O)[C@H]32)n1` (single isomer, unassigned) [Example 118a] reads 8.5 nM.
Compound `Cc1cc(C(F)(F)F)cc(N2C(=O)C[C@@H]3CN(CC4COCCN4C)c4c(Cl)cccc4N(C)C(=O)[C@H]32)n1` (single isomer, unassigned) [Example 119b] had an inhibitory constant (Ki) of 1.08 nM.
The compound `Cc1cc(C(F)(F)F)cc(N2C(=O)C[C@@H]3CN(CC4CN(C)CCO4)c4c(Cl)cccc4N(C)C(=O)[C@H]32)n1` (single isomer, unassigned) [Example 120a, hydrochloride] gave a Ki of 1.39 nM. This Ki and that of the compound before are within 1.5-fold of each other.
Under `Cc1cc(C(F)(F)F)cc(N2C(=O)C[C@@H]3CN(Cc4ccc(C5CCCN5C)cc4)c4c(F)cccc4N(C)C(=O)[C@H]32)n1` (single isomer, unassigned) [Example 125a, hydrochloride] stands 7.92 nM; under `Cc1cc(C(F)(F)F)cc(N2C(=O)C[C@@H]3CN(C[C@H]4CCN(C)[C@@H](C)C4)c4c(Cl)cccc4N(C)C(=O)[C@H]32)n1` (single isomer, unassigned) [Example 126a], 1.56 nM; under `Cc1cc(C(F)(F)F)cc(N2C(=O)C[C@@H]3CN(C[C@@H]4CCN(C)[C@H](C)C4)c4c(Cl)cccc4N(C)C(=O)[C@H]32)n1` (single isomer, unassigned) [Example 126b], 1.91 nM.
The result for `Cc1cc(C(F)(F)F)cc(N2C(=O)C[C@@H]3CN(C[C@H]4CCN(C)[C@H](C)C4)c4c(Cl)cccc4N(C)C(=O)[C@H]32)n1` (single isomer, unassigned) [Example 126c] reads 0.882 nM.

What is called Ki is the equilibrium dissociation constant of an inhibitor or competing ligand from its target.

(Values after patent publication US20260124214A1, “HETEROCYCLIC COMPOUNDS FOR USE IN THE TREATMENT OF CANCER” (ARTIOS PHARMA LIMITED, priority 2021, published 2026).)
